Legend:
Assay in all cases: combination Emax (second highest fraction inhibited in the dose matrix, 72 h); higher = more inhibition; extreme values may be limits of the assay
EW-7 (Ewing's Sarcoma) = system: EW-7 (Ewing's Sarcoma)
Procedure, shortened: (§1)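 Cell lines in DMEM/F12 or RPMI with 10% FBS were plated in 1536-well plates, held 24 hours at 37°C, 5% CO2, then given two-drug dose matrices for 72 hours (DMSO typically 0.2%). Viability was read by CellTiter-Glo 2.0 luminescence and scaled as inhibition from 0 (vehicle wells) to 1 (blank wells). Combination Emax is the second-highest inhibition in the matrix; Bliss excess is observed combination effect minus expected EA + EB − EA·EB, EA and EB being single-agent effects.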

[1] = system: LU-165 (Small Cell Lung Carcinoma)
Procedure, shortened: as §1

[2] = system: HCC1395 (Breast Carcinoma)
Procedure, shortened: as §1

EW-16 (Ewing's Sarcoma) = system: EW-16 (Ewing's Sarcoma)
Procedure, shortened: as §1

EB2 (Burkitt's Lymphoma) = system: EB2 (Burkitt's Lymphoma)
Procedure, shortened: as §1

PEO1 (Ovarian Carcinoma) = system: PEO1 (Ovarian Carcinoma)
Procedure, shortened: as §1

[3] = system: HT55 (Colorectal Carcinoma)
Procedure, shortened: as §1

[4] = system: DMS-53 (Small Cell Lung Carcinoma)
Procedure, shortened: as §1

[5] = system: SW620 (Colorectal Carcinoma)
Procedure, shortened: as §1

[6] = system: ESO26 (Esophageal Adenocarcinoma)
Procedure, shortened: as §1

[7] = system: MDA-MB-436 (Breast Carcinoma)
Procedure, shortened: as §1

KP-N-YN (Neuroblastoma) = system: KP-N-YN (Neuroblastoma)
Procedure, shortened: as §1

[8] = system: MHH-ES-1 (Ewing's Sarcoma)
Procedure, shortened: as §1

[9] = system: LS-411N (Colorectal Carcinoma)
Procedure, shortened: as §1

[10] = system: GA-10 (Burkitt's Lymphoma)
Procedure, shortened: as §1

5637 (Bladder Carcinoma) = system: 5637 (Bladder Carcinoma)
Procedure, shortened: as §1

[11] = system: EPLC-272H (Other Solid Carcinomas)
Procedure, shortened: as §1

COLO-792 (Melanoma) = system: COLO-792 (Melanoma)
Procedure, shortened: as §1

[12] = system: HCC1428 (Breast Carcinoma)
Procedure, shortened: as §1

RH-41 (Rhabdomyosarcoma) = system: RH-41 (Rhabdomyosarcoma)
Procedure, shortened: as §1

Row | Compound | combination Emax (EW-7 (Ewing's Sarcoma)) | combination Emax [1] | combination Emax [2] | combination Emax (EW-16 (Ewing's Sarcoma)) | combination Emax (EB2 (Burkitt's Lymphoma)) | combination Emax (PEO1 (Ovarian Carcinoma)) | combination Emax [3] | combination Emax [4] | combination Emax [5] | combination Emax [6] | combination Emax [7] | combination Emax (KP-N-YN (Neuroblastoma)) | combination Emax [8] | combination Emax [9] | combination Emax [10] | combination Emax (5637 (Bladder Carcinoma)) | combination Emax [11] | combination Emax (COLO-792 (Melanoma)) | combination Emax [12] | combination Emax (RH-41 (Rhabdomyosarcoma))
1 | CS(=O)(=O)CCNCc1ccc(-c2ccc3ncnc(Nc4ccc(OCc5cccc(F)c5)c(Cl)c4)c3c2)o1 [Lapatinib] + C[C@@H](Oc1cc(-c2cnn(C3CCNCC3)c2)cnc1N)c1c(Cl)ccc(F)c1Cl [Crizotinib] (first compound max 10 µM, 7x7, partner max 10 µM) | 0.956 | 0.441 | 0.906 | 0.969 | 0.768 | 0.718 | 0.931 | 0.25 | 0.921 | 0.854 | 0.248 | 0.755 | 0.912 | 0.584 | 0.98 | 1 | 0.959 | 0.981 | 0.471 | 0.991
2 | CCc1c2c(nc3ccc(O)cc13)-c1cc3c(c(=O)n1C2)COC(=O)[C@]3(O)CC [SN-38] + CN(C)CCCOc1ccc(-c2ccc3ncc4c(c3c2)n(C2CCOCC2)c(=O)n4C)cn1 [AZD0156] (first compound max 0.3 µM, 7x7, partner max 1 µM) | 0.975 | 0.517 | 0.512 | 0.978 | 0.948 | 0.674 | 0.449 | 0.729 | 0.883 | 0.655 | 0.572 | 0.806 | 1 | 0.363 | 0.913 | 0.802 | 0.755 | 0.361 | 0.123 | 0.719
3 | C[C@@H]1COCCN1c1cc(C2([S@](C)(=N)=O)CC2)nc(-c2ccnc3[nH]ccc23)n1 [AZD6738] + O=C(c1cc(Cc2n[nH]c(=O)c3ccccc23)ccc1F)N1CCN(C(=O)C2CC2)CC1 [Olaparib] (first compound max 10 µM, 7x7, partner max 10 µM) | 0.929 | 0.309 | 0.852 | 0.808 | 0.813 | 0.585 | 0.446 | 0.148 | 0.57 | 0.319 | 0.349 | 0.76 | 0.868 | 0.383 | 0.942 | 0.726 | 0.824 | 0.278 | 0.261 | 0.808
4 | COc1nnc2ccc(N3CCC(c4ccc(OCCN5CCN(C)C(=O)[C@H]5C)cc4)CC3)nn12 [AZD5153] + C=CCn1c(=O)c2cnc(Nc3ccc(N4CCN(C)CC4)cc3)nc2n1-c1cccc(C(C)(C)O)n1 [AZD1775] (first compound max 1 µM, partner max 1 µM) | 0.872 | 0.602 | 0.524 | 0.679 | 0.796 | 0.691 | 0.81 | 0.51 | 0.685 | 0.757 | 0.227 | 0.924 | 0.764 | 0.889 | 0.996 | 0.944 | 0.862 | 0.856 | 0.718 | 0.996
5 | CN(C)CCCOc1ccc(-c2ccc3ncc4c(c3c2)n(C2CCOCC2)c(=O)n4C)cn1 [AZD0156] + C[C@@H]1COCCN1C2=NC(=NC(=C2)C3(CC3)[S@](=N)(=O)C)C4=C5C=CNC5=NC=C4 [AZD6738] (first compound max 1 µM, 7x7, partner max 10 µM) | 0.935 | 0.233 | 0.8 | 0.695 | 0.774 | 0.533 | 0.514 | 0.134 | 0.566 | 0.414 | 0.23 | 0.973 | 0.638 | 0.808 | 1 | 0.712 | 0.903 | 0.273 | 0.132 | 0.874
6 | Cc1c2c(nn1C)CSCc1cc(n(C)n1)CSc1cc(c3ccccc3c1)OCCCc1c(C(=O)O)n(C)c3c-2c(Cl)ccc13 [AZD5991] + C[C@@H](Nc1cc(F)cc(F)c1)c1cc(C(=O)N(C)C)cc2c(=O)cc(N3CCOCC3)oc12 [AZD8186] (first compound max 1 µM, 7x7, partner max 3 µM) | 0.3 | 0.226 | 0.736 | 0.281 | 0.467 | 0.257 | 0.272 | 0.398 | 0.206 | 0.284 | 0.358 | 0.171 | 0.665 | 0.178 | 0.869 | 0.25 | 0.916 | 0.999 | 0.964 | 0.99
7 | COc1cccc(OCCCN)c1-c1cc(Nc2cnc(C#N)cn2)n[nH]1 [Prexasertib] + Cc1cc2ncnn2cc1Nc1ncc2c(n1)n(C1CCOCC1)c(=O)n2C [AZD7648] (first compound max 1 µM, 7x7, partner max 10 µM) | 0.971 | 0.58 | 0.855 | 0.558 | 0.92 | 0.415 | 0.65 | 0.293 | 0.698 | 0.504 | 0.431 | 0.992 | 0.742 | 0.753 | 1 | 0.845 | 0.918 | 0.317 | 0.345 | 0.964
8 | CC1(C)CCC(CN2CCN(c3ccc(C(=O)NS(=O)(=O)c4ccc(NCC5CCOCC5)c([N+](=O)[O-])c4)c(Oc4cnc5[nH]ccc5c4)c3)CC2)=C(c2ccc(Cl)cc2)C1 [Venetoclax] + CCN(CCO)CCCOc1ccc2c(Nc3cc(CC(=O)Nc4cccc(F)c4)[nH]n3)ncnc2c1 [AZD2811] (first compound max 1 µM, 7x7, partner max 1 µM) | 0.887 | 0.161 | 0.639 | 0.714 | 0.677 | 0.252 | 0.235 | 0.482 | 0.229 | 0.126 | 0.127 | 0.913 | 0.657 | 0.0756 | 0.598 | 0.607 | 0.371 | 0.446 | 0.451 | 0.418
9 | Cc1c2c(nn1C)CSCc1cc(n(C)n1)CSc1cc(c3ccccc3c1)OCCCc1c(C(=O)O)n(C)c3c-2c(Cl)ccc13 [AZD5991] + C1CN(CCC1(C(=O)N[C@@H](CCO)C2=CC=C(C=C2)Cl)N)C3=NC=NC4=C3C=CN4 [Capivasertib] (first compound max 1 µM, 7x7, partner max 3 µM) | 0.725 | 0.261 | 0.911 | 0.195 | 0.479 | 0.207 | 0.269 | 0.442 | 0.16 | 0.405 | 0.201 | 0.256 | 0.591 | 0.362 | 0.858 | 0.174 | 0.932 | 0.988 | 0.977 | 1
10 | CC1(C)CCC(CN2CCN(c3ccc(C(=O)NS(=O)(=O)c4ccc(NCC5CCOCC5)c([N+](=O)[O-])c4)c(Oc4cnc5[nH]ccc5c4)c3)CC2)=C(c2ccc(Cl)cc2)C1 [Venetoclax] + C[C@@H]1COCCN1C2=NC(=NC(=C2)C3(CC3)[S@](=N)(=O)C)C4=C5C=CNC5=NC=C4 [AZD6738] (first compound max 1 µM, 7x7, partner max 10 µM) | 0.959 | 0.441 | 0.771 | 0.792 | 0.844 | 0.48 | 0.58 | 0.809 | 0.47 | 0.508 | 0.36 | 0.999 | 0.707 | 0.736 | 0.976 | 0.69 | 0.873 | 0.316 | 0.397 | 0.855
11 | NC1(C(=O)N[C@@H](CCO)c2ccc(Cl)cc2)CCN(c2ncnc3[nH]ccc23)CC1 [Capivasertib] + COc1nnc2ccc(N3CCC(c4ccc(OCCN5CCN(C)C(=O)[C@H]5C)cc4)CC3)nn12 [AZD5153] (first compound max 10 µM, 7x7, partner max 1 µM) | 0.828 | 0.712 | 0.395 | 0.515 | 0.707 | 0.453 | 0.572 | 0.164 | 0.427 | 0.753 | 0.0453 | 0.478 | 0.717 | 0.937 | 0.927 | 0.627 | 0.944 | 0.94 | 0.571 | 1
12 | CC1(C)CCC(CN2CCN(c3ccc(C(=O)NS(=O)(=O)c4ccc(NCC5CCOCC5)c([N+](=O)[O-])c4)c(Oc4cnc5[nH]ccc5c4)c3)CC2)=C(c2ccc(Cl)cc2)C1 [Venetoclax] + C1CN(CCC1(C(=O)N[C@@H](CCO)C2=CC=C(C=C2)Cl)N)C3=NC=NC4=C3C=CN4 [Capivasertib] (first compound max 1 µM, 7x7, partner max 3 µM) | 0.962 | 0.269 | 0.662 | 0.236 | 0.795 | 0.19 | 0.363 | 0.361 | 0.151 | 0.311 | 0.163 | 0.573 | 0.323 | 0.305 | 0.584 | 0.168 | 0.562 | 0.381 | 0.119 | 0.945

Reference: the supplement of paper PMC11061612
